We go through two molecules from US5322854A, “Reveromycin A, method for preparing the same, and antitumor agent and antifungal agent comprising the same” (Rikagaku Kenkyusho, priority 1990, dated 1994).

Each structure is given as a SMILES string.

For one data set, the system named is mouse epithelial cells. Nature of the data set: Cell toxicity in mouse epithelial cells. It counts as cell-based. Particulars: 50 μg/ml.
A short description of the next data set: Acute toxicity. Conditions: mouse, in vivo, iv.
For a further data set, the system named is src^ts -NRK cells. Nature of the data set: Cell toxicity in src^ts-NRK cells. Particulars: 50 μg/ml, 32° C. It counts as cell-based, Rat.
For data set [1] the following is noted: background art; cited from earlier work.
In another data set the test system is TGF-α. Particulars: background art; cited from earlier work.

In the case of `CCCC[C@@]1(OC(=O)CCC(=O)O)CC[C@]2(CC[C@H](C)[C@@H](C/C=C(C)/C=C/[C@H](O)[C@@H](C)/C=C/C(=O)O)O2)O[C@H]1/C=C/C(C)=C/C(=O)O` [Reveromycin A], the cell toxicity entry in the data set on mouse epithelial cells and with src^ts -NRK cells was “observed” throughout. In addition, the 50% lethal dose (LD50) in the data set “Acute toxicity” was ≥ 100 mg/kg. Further, the Solubility entry in “Solubility” (aqueous acidic solution) is reported as “insoluble”; in the data set “Solubility” (dimethylsulfoxide, ethyl acetate, and methanol), “easily soluble”.
On to `O=CN/C=C/c1cc(O)ccc1O` [Erbstatin], for which the effect in blood result in data set [1] was “lose their effects in blood”. In the data set with TGF-α, the potency result is reported as “not sufficiently potent”.
